The target in one test is T1, Human Calpain 1/NS1 (Homo sapiens, UniProt P07384).
T1 sequence (P07384 1-714): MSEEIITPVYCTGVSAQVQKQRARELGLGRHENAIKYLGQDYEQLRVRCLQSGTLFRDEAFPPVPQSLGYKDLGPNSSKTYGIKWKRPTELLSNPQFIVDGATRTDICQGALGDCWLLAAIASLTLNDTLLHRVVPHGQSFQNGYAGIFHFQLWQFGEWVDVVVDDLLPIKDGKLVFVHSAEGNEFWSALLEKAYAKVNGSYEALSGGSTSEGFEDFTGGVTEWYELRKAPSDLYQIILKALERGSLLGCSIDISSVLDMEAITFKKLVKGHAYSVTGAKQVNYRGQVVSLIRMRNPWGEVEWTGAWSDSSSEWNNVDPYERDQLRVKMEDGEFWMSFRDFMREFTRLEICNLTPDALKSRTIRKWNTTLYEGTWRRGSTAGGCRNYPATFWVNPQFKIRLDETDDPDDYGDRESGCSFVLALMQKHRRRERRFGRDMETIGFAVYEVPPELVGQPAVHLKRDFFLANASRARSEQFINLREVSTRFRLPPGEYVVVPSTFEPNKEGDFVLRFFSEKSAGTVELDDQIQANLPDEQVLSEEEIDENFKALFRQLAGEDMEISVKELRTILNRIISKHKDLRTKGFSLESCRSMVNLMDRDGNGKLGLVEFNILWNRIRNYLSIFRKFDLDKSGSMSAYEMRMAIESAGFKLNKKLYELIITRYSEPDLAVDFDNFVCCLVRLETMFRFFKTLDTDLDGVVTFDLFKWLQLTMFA
T1 sequence (P04632 1-268 partner): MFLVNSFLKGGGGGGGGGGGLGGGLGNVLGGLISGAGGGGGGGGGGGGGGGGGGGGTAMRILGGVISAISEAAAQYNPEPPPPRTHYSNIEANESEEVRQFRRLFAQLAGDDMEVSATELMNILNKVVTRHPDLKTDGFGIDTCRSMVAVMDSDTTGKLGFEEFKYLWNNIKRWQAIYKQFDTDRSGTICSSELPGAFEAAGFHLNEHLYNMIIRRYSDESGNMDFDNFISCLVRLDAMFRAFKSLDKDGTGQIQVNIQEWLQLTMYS
The experiment in a line: Biochemical inhibition of calpain 1, continuous fluorescence (FRET substrate) assay. The settings on record: mean, read-out: Human Calpain 1/NS1 IC50 (nM)_MEAN. In outline:
(§1)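 Continuous FRET assay with 5-FAM/QXL520 peptide substrate in 50 mM Tris pH ~7.5, 100 mM NaCl, 1 mM DTT. Enzyme preincubated with inhibitor at 25C; reaction started with substrate plus CaCl2, read at 490/520 nm for 10 min. Rates from slopes over 1-5 min, IC50 from 4-parameter logistic fit.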

For another test, the target named is T2, Human Calpain 2/NS1 (Homo sapiens, UniProt P17655).
T2 sequence (P17655 1-700): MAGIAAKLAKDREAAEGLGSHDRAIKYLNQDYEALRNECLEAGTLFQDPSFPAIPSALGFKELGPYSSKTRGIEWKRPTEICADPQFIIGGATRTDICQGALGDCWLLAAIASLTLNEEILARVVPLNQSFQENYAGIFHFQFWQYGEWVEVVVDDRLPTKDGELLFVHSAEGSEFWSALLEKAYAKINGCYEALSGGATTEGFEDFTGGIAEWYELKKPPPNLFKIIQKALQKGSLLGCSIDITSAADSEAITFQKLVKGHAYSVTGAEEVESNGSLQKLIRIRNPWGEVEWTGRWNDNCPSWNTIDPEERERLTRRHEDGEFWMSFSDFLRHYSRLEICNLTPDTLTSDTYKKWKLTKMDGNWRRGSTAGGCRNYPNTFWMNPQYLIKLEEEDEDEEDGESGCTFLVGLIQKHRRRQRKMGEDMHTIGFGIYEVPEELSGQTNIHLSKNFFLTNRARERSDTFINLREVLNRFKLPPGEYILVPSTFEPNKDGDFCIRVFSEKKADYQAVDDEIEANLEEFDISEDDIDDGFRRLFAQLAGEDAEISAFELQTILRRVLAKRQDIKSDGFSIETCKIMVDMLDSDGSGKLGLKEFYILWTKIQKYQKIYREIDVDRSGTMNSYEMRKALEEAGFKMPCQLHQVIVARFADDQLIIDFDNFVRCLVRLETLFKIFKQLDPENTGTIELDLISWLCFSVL
T2 sequence (P04632 1-268 partner): T1 sequence (P04632 1-268 partner)
The experiment in a line: Biochemical inhibition of calpain 2, continuous fluorescence (FRET substrate) assay. The settings on record: mean, read-out: Human Calpain 2/NS1 IC50 (nM)_MEAN. A digest of the protocol:
as §1

The target of another test is T3, Human Calpain 9/NS1 (Homo sapiens, UniProt O14815).
T3 sequence (O14815 1-690): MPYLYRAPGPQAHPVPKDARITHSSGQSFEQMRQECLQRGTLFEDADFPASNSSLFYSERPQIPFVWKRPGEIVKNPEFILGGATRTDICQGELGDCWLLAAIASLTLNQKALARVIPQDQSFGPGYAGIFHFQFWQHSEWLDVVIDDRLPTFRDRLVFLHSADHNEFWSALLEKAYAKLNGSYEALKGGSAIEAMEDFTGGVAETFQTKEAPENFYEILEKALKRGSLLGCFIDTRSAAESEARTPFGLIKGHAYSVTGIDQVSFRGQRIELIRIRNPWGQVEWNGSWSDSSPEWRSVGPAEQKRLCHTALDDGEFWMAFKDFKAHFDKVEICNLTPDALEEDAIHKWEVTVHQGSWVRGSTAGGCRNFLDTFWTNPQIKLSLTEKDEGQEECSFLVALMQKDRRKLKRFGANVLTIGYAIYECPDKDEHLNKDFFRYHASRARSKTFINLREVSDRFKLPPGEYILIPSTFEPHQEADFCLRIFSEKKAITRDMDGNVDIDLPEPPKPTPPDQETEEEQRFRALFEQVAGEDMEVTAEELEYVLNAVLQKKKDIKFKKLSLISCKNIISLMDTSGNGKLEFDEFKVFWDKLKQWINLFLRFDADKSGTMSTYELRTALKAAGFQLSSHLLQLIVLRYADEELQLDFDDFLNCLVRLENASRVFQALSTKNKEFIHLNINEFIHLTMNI
T3 sequence (P04632 1-268 partner): T1 sequence (P04632 1-268 partner)
The experiment in a line: Biochemical inhibition of calpain 9, continuous fluorescence (FRET substrate) assay. Particulars: mean, read-out: Human Calpain 9/NS1 IC50 (nM)_MEAN. A digest of the protocol: as §1

With `O=C(NCc1ccccc1)C(=O)[C@@H]1CC=CCCCCOc2ccccc2C(=O)N1` [Compound 7, (S)—N-benzyl-2-oxo-2-(11-oxo-2,3,4,5,8,9,10,11-octahydrobenzo[b][1]oxa[5]azacyclotridecin-9-yl)acetamide], the IC50 at Human Calpain 1/NS1 is > 10000 nM; at Human Calpain 2/NS1 it was > 10000 nM; on Human Calpain 9/NS1 it was 3000 to 10000 nM.

`CCCCc1ccc(CNC(=O)C(=O)C2CCCCOCCOCc3ccccc3C(=O)N2)cc1` (stereo not drawn) [Compound 112, N-(4-butylbenzyl)-2-oxo-2-(12-oxo-1,3,4,6,7,8,9,10,11,12-decahydrobenzo[f][1,4]dioxa[9]azacyclotetradecin-10-yl)acetamide]: the IC50 is > 10000 nM on Human Calpain 1/NS1, > 10000 nM at Human Calpain 2/NS1 and < 3000 nM at Human Calpain 9/NS1.

On to `CS(=O)(=O)c1ccc(CNC(=O)C(=O)C2CCCCOCCOCc3ccccc3C(=O)N2)cc1` (stereo not drawn) [Compound 121, N-(4-(methylsulfonyl)benzyl)-2-oxo-2-(12-oxo-1,3,4,6,7,8,9,10,11,12-decahydrobenzo[f][1,4]dioxa[9]azacyclotetradecin-10-yl)acetamide], for which the IC50 on Human Calpain 1/NS1 is > 10000 nM; on Human Calpain 2/NS1, 3000 to 10000 nM; at Human Calpain 9/NS1, < 3000 nM.

As for `O=C(NC1CC1)C(=O)[C@@H]1Cc2ccc(cc2)OCCCCOc2cccc(c2)-c2ccn(n2)-c2ncccc2C(=O)N1` [Compound 72, N-cyclopropyl-2-oxo-2-((6S,E)-4-oxo-2^1H-9,14-dioxa-5-aza-3(2,3)-pyridina-2(3,1)-pyrazola-1(1,3),8(1,4)-dibenzenacyclotetradecaphane-6-yl)acetamide], the IC50 at Human Calpain 1/NS1, on Human Calpain 2/NS1 and at Human Calpain 9/NS1 was < 3000 nM throughout.

Take `CCCNC(=O)C(=O)C1CCCCOCCOCc2ccccc2C(=O)N1` (stereo not drawn) [Compound 91, 2-Oxo-2-(12-oxo-1,3,4,6,7,8,9,10,11,12-decahydrobenzo[f][1,4]dioxa[9]azacyclotetradecin-10-yl)-N-propylacetamide]: the IC50 on Human Calpain 1/NS1, at Human Calpain 2/NS1 and on Human Calpain 9/NS1 was > 10000 nM each time.

For the compound `O=C[C@@H]1Cc2ccc(cc2)CC=CCc2cccc(c2)-c2ccn(n2)-c2ncccc2C(=O)N1` [Compound 75, (2^2E,10S)-12-oxo-2^1H-11-aza-1(2,3)-pyridina-2(1,3)-pyrazola-3(1,3),8(1,4)-dibenzenacyclododecaphan-5-ene-10-carbaldehyde], the IC50 at Human Calpain 1/NS1, on Human Calpain 2/NS1 and on Human Calpain 9/NS1 was < 3000 nM in each case.

With “(S)-2-(1^3-methyl-11-oxo-1^1H-3-oxa-10-aza-1(1,5)-pyrazola-2(1,3)-benzenacycloundecaphane-9-yl)-2-oxoacetamide [Compound 143]”, the IC50 on Human Calpain 1/NS1, at Human Calpain 2/NS1 and at Human Calpain 9/NS1 was < 3000 nM each time.

`O=C[C@@H]1CCCCCCCCc2cccnc2C(=O)N1` [Compound 49, (S)-15-Oxo-6,7,8,9,10,11,12,13,14,15-decahydro-5h-pyrido[2,3-c][1]aza-cyclotridecine-13-carbaldehyde]: the IC50 on Human Calpain 1/NS1 was > 10000 nM; on Human Calpain 2/NS1, 3000 to 10000 nM; at Human Calpain 9/NS1, < 3000 nM.

For the compound `CN(C)CCCNC(=O)C(=O)C1CCCCOCCOCc2ccccc2C(=O)N1` (stereo not drawn) [Compound 93, N-(3-(dimethylamino)propyl)-2-oxo-2-(12-oxo-1,3,4,6,7,8,9,10,11,12-decahydrobenzo[f][1,4]dioxa[9]azacyclotetradecin-10-yl)acetamide], the IC50 at Human Calpain 1/NS1, at Human Calpain 2/NS1 and on Human Calpain 9/NS1 was > 10000 nM in each case.

Turning to `O=C(NCCc1ccccc1)C(=O)C1CCCCOCCOCc2ccccc2C(=O)N1` (stereo not drawn) [Compound 104, 2-Oxo-2-(12-oxo-1,3,4,6,7,8,9,10,11,12-decahydrobenzo[f][1,4]dioxa[9]aza-cyclotetradecin-10-yl)-N-phenethylacetamide], the IC50 at Human Calpain 1/NS1 was > 10000 nM; at Human Calpain 2/NS1, 3000 to 10000 nM; at Human Calpain 9/NS1, < 3000 nM.

Regarding `CON(C)C(=O)[C@@H]1C/C=C/CCOc2ccnc(n2)-c2ccccc2C(=O)N1` [Compound 135, (S,E)-N-methoxy-N-methyl-3-oxo-11-oxa-4-aza-1(2,4)-pyrimidina-2(1,2)-benzenacycloundecaphan-7-ene-5-carboxamide], the IC50 on Human Calpain 1/NS1, on Human Calpain 2/NS1 and at Human Calpain 9/NS1 was > 10000 nM each time.

Take `CCNC(=O)C(=O)[C@@H]1CCCCCCCCCCc2ccccc2C(=O)N1` [Compound 34, (S)—N-ethyl-2-oxo-2-(1-oxo-2,3,4,5,6,7,8,9,10,11,12,13-dodecahydro-1h-benzo[c][1]azacyclopentadecin-3-yl)acetamide]: the IC50 at Human Calpain 1/NS1, on Human Calpain 2/NS1 and at Human Calpain 9/NS1 was > 10000 nM throughout.

As to `O=C[C@@H]1CC=CCCCCOc2ccccc2C(=O)N1` (mixture of isomers) [Compound 5, (S)-11-Oxo-2,3,4,5,8,9,10,11-octahydrobenzo[b][1]oxa[5]azacyclotridecine-9-carbaldehyde], the IC50 at Human Calpain 1/NS1 was > 10000 nM; on Human Calpain 2/NS1, 3000 to 10000 nM; at Human Calpain 9/NS1 it was < 3000 nM.

Consider `O=C[C@@H]1C/C=C/COCCOCc2ccccc2C(=O)N1` [Compound 2, (S,E)-12-Oxo-1,3,4,6,9,10,11,12-octahydrobenzo[f][1,4]dioxa[9]azacyclotetradecine-10-carbaldehyde], for which the IC50 on Human Calpain 1/NS1 was > 10000 nM; on Human Calpain 2/NS1 it was > 10000 nM; on Human Calpain 9/NS1, 3000 to 10000 nM.

On to `O=C[C@@H]1CC=CCCOc2nccc(n2)-c2ccccc2C(=O)N1` [Compound 40, (S)-11-Oxo-3-oxa-10-aza-1(2,3)-pyridina-2(1,3)-benzena-cycloundecaphane-9-carbaldehyde], for which the IC50 at Human Calpain 1/NS1 was 3000 to 10000 nM; at Human Calpain 2/NS1, < 3000 nM; on Human Calpain 9/NS1, < 3000 nM.

Turning to `Cc1cc(C)cc(CNC(=O)C(=O)C2CCCCOCCOCc3ccccc3C(=O)N2)c1` (stereo not drawn) [Compound 111, N-(3,5-dimethylbenzyl)-2-oxo-2-(12-oxo-1,3,4,6,7,8,9,10,11,12-decahydrobenzo[f][1,4]dioxa[9]azacyclotetradecin-10-yl)acetamide], the IC50 at Human Calpain 1/NS1 was > 10000 nM; on Human Calpain 2/NS1, 3000 to 10000 nM; on Human Calpain 9/NS1 it was < 3000 nM.

These data come from patent US11292801B2, “Calpain modulators and therapeutic uses thereof” (Blade Therapeutics, Inc., priority 2016, dated 2022).
